Counter-ions that a name gives are not always drawn. Like-named read-outs stand apart in the source and are kept apart here.
What was measured:
Serotoninergic 5-HT6 = Serotoninergic 5-HT6 (Homo sapiens, UniProt P50406); test: competitive radioligand binding, Serotoninergic 5-HT6; details: compound concentration of 1 μM; read-out: radio-labelled ligand displacement, Serotoninergic 5-HT6
Outline: (§1)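 Displacement of radiolabelled ligand from each receptor, quantified in a competitive radioligand binding format. Test compounds were screened at a single concentration of 1 μM, and activity is expressed as the degree of displacement.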

Histaminergic H3 = Histaminergic H3 (Homo sapiens, UniProt Q9Y5N1); test: competitive radioligand binding, Histaminergic H3; details: compound concentration of 1 μM; read-out: radio-labelled ligand displacement, Histaminergic H3
Sequence of Histaminergic H3 (Q9Y5N1 whole entry): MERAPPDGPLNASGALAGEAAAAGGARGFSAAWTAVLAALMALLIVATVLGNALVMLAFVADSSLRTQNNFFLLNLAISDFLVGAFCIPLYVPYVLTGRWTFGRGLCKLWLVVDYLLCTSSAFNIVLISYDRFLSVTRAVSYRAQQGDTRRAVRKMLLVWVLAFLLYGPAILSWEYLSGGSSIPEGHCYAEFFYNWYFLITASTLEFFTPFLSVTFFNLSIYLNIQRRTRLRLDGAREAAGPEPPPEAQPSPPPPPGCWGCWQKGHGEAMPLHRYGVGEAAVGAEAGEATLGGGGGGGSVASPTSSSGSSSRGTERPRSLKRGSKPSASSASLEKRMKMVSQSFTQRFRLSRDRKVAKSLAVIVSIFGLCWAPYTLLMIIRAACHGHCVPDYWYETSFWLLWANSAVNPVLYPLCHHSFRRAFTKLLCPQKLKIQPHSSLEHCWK
Outline: as §1

Dopaminergic D1 = Dopaminergic D1 (Homo sapiens, UniProt P21728); test: competitive radioligand binding, Dopaminergic D1; details: compound concentration of 1 μM; read-out: radio-labelled ligand displacement, Dopaminergic D1
Sequence of Dopaminergic D1 (P21728 whole entry): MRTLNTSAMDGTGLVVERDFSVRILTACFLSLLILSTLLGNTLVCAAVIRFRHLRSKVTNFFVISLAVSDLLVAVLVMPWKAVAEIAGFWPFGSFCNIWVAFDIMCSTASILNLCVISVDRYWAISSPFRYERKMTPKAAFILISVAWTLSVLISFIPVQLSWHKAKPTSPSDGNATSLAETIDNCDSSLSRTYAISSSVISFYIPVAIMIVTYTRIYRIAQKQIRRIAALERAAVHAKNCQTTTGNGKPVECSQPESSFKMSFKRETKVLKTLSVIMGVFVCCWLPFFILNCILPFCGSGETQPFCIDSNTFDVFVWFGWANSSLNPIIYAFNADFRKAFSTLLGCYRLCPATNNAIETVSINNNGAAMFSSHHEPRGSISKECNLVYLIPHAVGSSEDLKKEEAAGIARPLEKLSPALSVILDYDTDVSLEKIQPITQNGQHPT
Outline: as §1

Serotoninergic 5-HT1A = molecular target: T1, Serotoninergic 5-HT1A (Homo sapiens, UniProt P08908); test: competitive radioligand binding, Serotoninergic 5-HT1A; details: compound concentration of 1 μM; read-out: radio-labelled ligand displacement, Serotoninergic 5-HT1A
T1 sequence (P08908 1-422): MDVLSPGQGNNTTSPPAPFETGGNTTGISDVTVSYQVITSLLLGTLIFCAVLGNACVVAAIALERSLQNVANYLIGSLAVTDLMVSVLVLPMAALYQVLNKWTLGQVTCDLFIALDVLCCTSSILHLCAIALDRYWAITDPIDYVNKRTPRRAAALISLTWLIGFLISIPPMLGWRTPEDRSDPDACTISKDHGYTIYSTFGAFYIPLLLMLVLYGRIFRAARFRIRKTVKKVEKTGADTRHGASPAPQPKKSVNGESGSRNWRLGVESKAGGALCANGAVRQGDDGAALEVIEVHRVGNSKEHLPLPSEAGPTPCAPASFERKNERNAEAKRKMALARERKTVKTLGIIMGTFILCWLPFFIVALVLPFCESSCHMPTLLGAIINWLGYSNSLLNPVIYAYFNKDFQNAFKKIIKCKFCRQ
Outline: as §1

Dopaminergic D2L = Dopaminergic D2L (Homo sapiens, UniProt P14416); test: competitive radioligand binding, Dopaminergic D2L; details: compound concentration of 1 μM; read-out: radio-labelled ligand displacement, Dopaminergic D2L
Sequence of Dopaminergic D2L (P14416 whole entry): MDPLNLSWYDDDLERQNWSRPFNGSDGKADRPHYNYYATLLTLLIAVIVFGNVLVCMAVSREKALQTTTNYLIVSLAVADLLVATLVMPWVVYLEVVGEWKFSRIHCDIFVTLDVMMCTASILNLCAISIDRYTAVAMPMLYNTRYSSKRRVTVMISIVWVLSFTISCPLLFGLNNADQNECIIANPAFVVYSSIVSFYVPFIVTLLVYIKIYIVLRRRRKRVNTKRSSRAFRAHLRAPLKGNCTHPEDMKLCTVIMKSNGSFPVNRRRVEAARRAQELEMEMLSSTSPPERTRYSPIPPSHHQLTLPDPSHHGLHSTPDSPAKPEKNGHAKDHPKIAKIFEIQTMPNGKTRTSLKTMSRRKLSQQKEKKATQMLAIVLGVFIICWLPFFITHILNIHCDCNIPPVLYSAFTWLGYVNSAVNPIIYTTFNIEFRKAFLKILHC
Outline: as §1

Histaminergic H2 = Histaminergic H2 (Homo sapiens, UniProt P25021); test: competitive radioligand binding, Histaminergic H2; details: compound concentration of 1 μM; read-out: radio-labelled ligand displacement, Histaminergic H2
Sequence of Histaminergic H2 (P25021 whole entry): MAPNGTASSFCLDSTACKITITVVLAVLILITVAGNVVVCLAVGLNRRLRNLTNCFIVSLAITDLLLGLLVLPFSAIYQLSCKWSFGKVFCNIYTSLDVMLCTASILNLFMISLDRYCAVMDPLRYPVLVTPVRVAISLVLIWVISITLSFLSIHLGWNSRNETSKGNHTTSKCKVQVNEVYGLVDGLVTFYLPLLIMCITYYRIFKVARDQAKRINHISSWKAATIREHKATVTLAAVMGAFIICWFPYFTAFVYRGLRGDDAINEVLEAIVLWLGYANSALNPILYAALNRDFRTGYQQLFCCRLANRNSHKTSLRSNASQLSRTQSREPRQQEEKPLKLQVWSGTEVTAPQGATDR
Outline: as §1

Adrenergic α1B = test: competitive radioligand binding, Adrenergic α1B; details: compound concentration of 1 μM
Outline: as §1

Dopaminergic D3 = Dopaminergic D3 (Homo sapiens, UniProt P35462); test: competitive radioligand binding, Dopaminergic D3; details: compound concentration of 1 μM; read-out: radio-labelled ligand displacement, Dopaminergic D3
Sequence of Dopaminergic D3 (P35462 whole entry): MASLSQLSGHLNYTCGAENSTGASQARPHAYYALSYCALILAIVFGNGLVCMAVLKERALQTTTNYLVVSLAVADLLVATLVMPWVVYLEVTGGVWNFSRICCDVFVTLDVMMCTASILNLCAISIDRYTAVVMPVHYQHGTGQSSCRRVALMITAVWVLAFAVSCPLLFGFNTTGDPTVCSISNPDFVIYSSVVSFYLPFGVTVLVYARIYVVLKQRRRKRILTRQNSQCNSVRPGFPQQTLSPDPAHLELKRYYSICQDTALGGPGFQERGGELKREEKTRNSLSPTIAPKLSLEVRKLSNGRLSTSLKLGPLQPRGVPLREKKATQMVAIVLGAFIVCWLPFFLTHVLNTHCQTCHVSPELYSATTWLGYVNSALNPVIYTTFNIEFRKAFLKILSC
Outline: as §1

Serotoninergic 5-HT2B = Serotoninergic 5-HT2B (Homo sapiens, UniProt P41595); test: competitive radioligand binding, Serotoninergic 5-HT2B; details: read-out: radio-labelled ligand displacement, Serotoninergic 5-HT2B
Sequence of Serotoninergic 5-HT2B (P41595 whole entry): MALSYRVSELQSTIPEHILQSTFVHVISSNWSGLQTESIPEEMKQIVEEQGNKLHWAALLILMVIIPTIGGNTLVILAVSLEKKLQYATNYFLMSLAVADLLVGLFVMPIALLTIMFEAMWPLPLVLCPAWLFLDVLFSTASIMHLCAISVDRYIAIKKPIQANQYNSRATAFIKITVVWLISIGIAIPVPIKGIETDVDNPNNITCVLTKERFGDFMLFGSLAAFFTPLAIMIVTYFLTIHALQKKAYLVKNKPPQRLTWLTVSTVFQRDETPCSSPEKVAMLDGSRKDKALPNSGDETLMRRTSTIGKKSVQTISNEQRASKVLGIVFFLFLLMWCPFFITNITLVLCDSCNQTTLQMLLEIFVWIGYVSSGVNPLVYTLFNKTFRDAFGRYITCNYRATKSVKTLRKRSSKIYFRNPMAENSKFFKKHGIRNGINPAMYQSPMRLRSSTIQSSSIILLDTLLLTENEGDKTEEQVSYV
Outline: as §1

Dopaminergic D2S = Dopaminergic D2S (Homo sapiens, UniProt P14416); test: competitive radioligand binding, Dopaminergic D2S; details: compound concentration of 1 μM; read-out: radio-labelled ligand displacement, Dopaminergic D2S
Sequence of Dopaminergic D2S (P14416 1-414 isoform P14416-2): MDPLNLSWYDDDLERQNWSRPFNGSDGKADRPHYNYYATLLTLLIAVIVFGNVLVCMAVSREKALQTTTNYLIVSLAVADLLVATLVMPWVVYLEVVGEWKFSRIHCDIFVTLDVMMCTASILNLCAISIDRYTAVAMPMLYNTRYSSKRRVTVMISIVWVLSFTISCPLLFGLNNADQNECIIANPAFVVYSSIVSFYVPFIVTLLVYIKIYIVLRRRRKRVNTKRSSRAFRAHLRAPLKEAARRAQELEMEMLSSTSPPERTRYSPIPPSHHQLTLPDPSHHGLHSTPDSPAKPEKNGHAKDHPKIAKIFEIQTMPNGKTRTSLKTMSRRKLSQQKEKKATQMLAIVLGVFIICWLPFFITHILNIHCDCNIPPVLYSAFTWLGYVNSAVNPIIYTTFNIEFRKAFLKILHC
Outline: as §1

Adrenergic α2A = molecular target: T2, Adrenergic α2A (Homo sapiens, UniProt P08913); test: competitive radioligand binding, Adrenergic α2A; details: read-out: radio-labelled ligand displacement, Adrenergic α2A
T2 sequence (P08913 1-465): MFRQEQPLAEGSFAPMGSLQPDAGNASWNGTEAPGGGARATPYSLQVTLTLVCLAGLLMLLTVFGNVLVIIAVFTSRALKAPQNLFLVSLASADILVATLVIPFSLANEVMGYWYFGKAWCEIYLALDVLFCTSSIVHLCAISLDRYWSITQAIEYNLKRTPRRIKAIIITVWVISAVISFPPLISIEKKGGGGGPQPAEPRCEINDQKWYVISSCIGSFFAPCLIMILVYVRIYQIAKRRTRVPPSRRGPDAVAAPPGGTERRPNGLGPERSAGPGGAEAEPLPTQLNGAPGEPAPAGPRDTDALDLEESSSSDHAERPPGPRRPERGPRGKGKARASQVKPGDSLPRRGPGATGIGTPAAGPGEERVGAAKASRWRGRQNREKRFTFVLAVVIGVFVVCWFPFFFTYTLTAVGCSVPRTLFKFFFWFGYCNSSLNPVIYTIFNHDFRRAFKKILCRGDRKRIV
Outline: as §1

Histaminergic H1 = Histaminergic H1 (Homo sapiens, UniProt P35367); test: competitive radioligand binding, Histaminergic H1; details: compound concentration of 1 μM; read-out: radio-labelled ligand displacement, Histaminergic H1
Sequence of Histaminergic H1 (P35367 whole entry): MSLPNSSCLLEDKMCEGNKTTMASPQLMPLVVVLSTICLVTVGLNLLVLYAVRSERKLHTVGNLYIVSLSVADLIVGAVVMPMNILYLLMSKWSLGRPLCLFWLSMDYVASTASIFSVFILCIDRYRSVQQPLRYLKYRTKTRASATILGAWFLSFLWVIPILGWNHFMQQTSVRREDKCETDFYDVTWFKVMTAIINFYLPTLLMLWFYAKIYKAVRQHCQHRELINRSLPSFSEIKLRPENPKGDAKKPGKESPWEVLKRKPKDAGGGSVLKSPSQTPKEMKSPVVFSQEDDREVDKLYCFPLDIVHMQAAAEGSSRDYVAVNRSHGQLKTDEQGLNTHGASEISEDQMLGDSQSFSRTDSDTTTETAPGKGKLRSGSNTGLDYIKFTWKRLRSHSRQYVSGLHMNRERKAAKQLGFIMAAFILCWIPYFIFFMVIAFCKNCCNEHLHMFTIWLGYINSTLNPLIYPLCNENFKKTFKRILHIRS
Outline: as §1

Serotoninergic 5-HT1B = test: competitive radioligand binding, Serotoninergic 5-HT1B; details: compound concentration of 1 μM
Outline: as §1

Dopaminergic D4.2 = molecular target: T3, Dopaminergic D4.2 (Homo sapiens, UniProt P21917, DEL265-296); test: competitive radioligand binding, Dopaminergic D4.2; details: compound concentration of 1 μM; read-out: radio-labelled ligand displacement, Dopaminergic D4.2
T3 sequence (P21917 with tags, fused parts or gaps DEL265-296): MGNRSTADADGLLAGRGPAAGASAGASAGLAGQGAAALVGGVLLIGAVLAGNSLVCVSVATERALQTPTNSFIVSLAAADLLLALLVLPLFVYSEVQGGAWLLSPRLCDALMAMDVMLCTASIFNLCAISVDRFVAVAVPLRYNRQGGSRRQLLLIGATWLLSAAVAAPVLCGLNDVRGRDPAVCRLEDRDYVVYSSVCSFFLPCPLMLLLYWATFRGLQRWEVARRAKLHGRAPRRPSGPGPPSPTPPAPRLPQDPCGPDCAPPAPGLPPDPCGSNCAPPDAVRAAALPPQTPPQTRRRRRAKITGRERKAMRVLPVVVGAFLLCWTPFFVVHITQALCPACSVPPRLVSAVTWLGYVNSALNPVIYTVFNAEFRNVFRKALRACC
Outline: as §1

Sequence of Serotoninergic 5-HT6 (P50406 whole entry): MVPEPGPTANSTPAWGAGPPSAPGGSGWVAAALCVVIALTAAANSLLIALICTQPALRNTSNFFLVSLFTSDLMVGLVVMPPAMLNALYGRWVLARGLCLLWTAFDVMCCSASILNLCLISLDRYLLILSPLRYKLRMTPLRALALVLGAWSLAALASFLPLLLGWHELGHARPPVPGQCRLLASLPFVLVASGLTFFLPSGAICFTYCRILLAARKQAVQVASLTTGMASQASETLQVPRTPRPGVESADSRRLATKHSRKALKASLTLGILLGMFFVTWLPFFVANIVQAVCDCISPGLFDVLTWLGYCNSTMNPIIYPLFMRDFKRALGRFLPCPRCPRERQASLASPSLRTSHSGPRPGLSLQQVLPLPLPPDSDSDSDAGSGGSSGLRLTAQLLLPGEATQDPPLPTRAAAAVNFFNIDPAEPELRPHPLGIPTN

## Cc1cc2c3c(n(CCc4ccccc4)c2s1)CCN(C)C3.Cl [3.6(1)•HCl, 2,5-Dimethyl-8-(2-phenylethyl)-5,6,7,8-tetrahydro-4H-thieno[3′,2′:4,5]pyrrolo[3,2-c]pyridine hydrochloride]
Serotoninergic 5-HT6
  inhibition at 1 µM: 103%
Histaminergic H3
  inhibition at 1 µM: -17%
Dopaminergic D1
  inhibition at 1 µM: 70%
Serotoninergic 5-HT1A
  inhibition at 1 µM: 48%
Dopaminergic D2L
  inhibition at 1 µM: 87%
Histaminergic H2
  inhibition at 1 µM: 96%
Adrenergic α1B
  radio-labelled ligand displacement, Adrenergic α1B: 99%
Dopaminergic D3
  inhibition at 1 µM: 73%
Serotoninergic 5-HT2B
  inhibition at 1 µM: 92%
Dopaminergic D2S
  inhibition at 1 µM: 86%
Adrenergic α2A
  inhibition at 1 µM: 100%
Histaminergic H1
  inhibition at 1 µM: 98%
Serotoninergic 5-HT1B
  radio-labelled ligand displacement, Serotoninergic 5-HT1B: 47%
Dopaminergic D4.2
  inhibition at 1 µM: 71%

## Cc1cc2c3c(n(Cc4ccccc4)c2s1)CCN(C)C3.Cl [3.5(1)•HCl, 8-Benzyl-2,5-dimethyl-5,6,7,8-tetrahydro-4H-thieno[3′,2′:4,5]pyrrolo[3,2-c]pyridine hydrochloride]
Serotoninergic 5-HT6
  inhibition at 1 µM: 85%
Histaminergic H3
  inhibition at 1 µM: 18%
Dopaminergic D1
  inhibition at 1 µM: 5%
Serotoninergic 5-HT1A
  inhibition at 1 µM: 42%
Dopaminergic D2L
  inhibition at 1 µM: 14%
Histaminergic H2
  inhibition at 1 µM: 91%
Adrenergic α1B
  radio-labelled ligand displacement, Adrenergic α1B: 57%
Dopaminergic D3
  inhibition at 1 µM: 19%
Serotoninergic 5-HT2B
  inhibition at 1 µM: 90%
Dopaminergic D2S
  inhibition at 1 µM: 23%
Adrenergic α2A
  inhibition at 1 µM: 64%
Histaminergic H1
  inhibition at 1 µM: 96%
Serotoninergic 5-HT1B
  radio-labelled ligand displacement, Serotoninergic 5-HT1B: 10%
Dopaminergic D4.2
  inhibition at 1 µM: -5%

## Cc1ccc(Cn2c3c(c4sc(Cl)cc42)C(C)N(C)C(C)C3)cn1 (centres unmarked) [2.5(4)•HCl, 4-(6-methylpyridin-3-ylmethyl)-6,7,8-trimethyl-2-chloro-5,6,7,8-tetrahydro-4H-thieno[2′,3′:4,5]pyrrolo[3,2-c]pyridine]
Serotoninergic 5-HT6
  inhibition at 1 µM: 85%
Histaminergic H3
  inhibition at 1 µM: 9%
Dopaminergic D1
  inhibition at 1 µM: 3%
Serotoninergic 5-HT1A
  inhibition at 1 µM: 35%
Dopaminergic D2L
  inhibition at 1 µM: 11%
Histaminergic H2
  inhibition at 1 µM: 83%
Adrenergic α1B
  radio-labelled ligand displacement, Adrenergic α1B: 38%
Dopaminergic D3
  inhibition at 1 µM: 15%
Serotoninergic 5-HT2B; compound concentration of 1 μM
  inhibition at 1 µM: 78%
Dopaminergic D2S
  inhibition at 1 µM: 17%
Adrenergic α2A; compound concentration of 1 μM
  inhibition at 1 µM: 42%
Histaminergic H1
  inhibition at 1 µM: 70%
Serotoninergic 5-HT1B
  radio-labelled ligand displacement, Serotoninergic 5-HT1B: 28%
Dopaminergic D4.2
  inhibition at 1 µM: -1%

## Cc1cc2c(s1)c1c(n2CCc2ccccc2)CCN(C)C1.Cl [2.6(1)•HCl, 2,7-Dimethyl-4-(2-phenylethyl)-5,6,7,8-tetrahydro-4H-thieno[2′,3′:4,5]pyrrolo[3,2-c]pyridine hydrochloride]
Serotoninergic 5-HT6
  inhibition at 1 µM: 98%
Histaminergic H3
  inhibition at 1 µM: -15%
Dopaminergic D1
  inhibition at 1 µM: 15%
Serotoninergic 5-HT1A
  inhibition at 1 µM: 16%
Dopaminergic D2L
  inhibition at 1 µM: 76%
Histaminergic H2
  inhibition at 1 µM: 56%
Adrenergic α1B
  radio-labelled ligand displacement, Adrenergic α1B: 90%
Dopaminergic D3
  inhibition at 1 µM: 62%
Serotoninergic 5-HT2B
  inhibition at 1 µM: 79%
Dopaminergic D2S
  inhibition at 1 µM: 73%
Adrenergic α2A
  inhibition at 1 µM: 80%
Histaminergic H1
  inhibition at 1 µM: 97%
Serotoninergic 5-HT1B
  radio-labelled ligand displacement, Serotoninergic 5-HT1B: 18%
Dopaminergic D4.2
  inhibition at 1 µM: 14%
